{"source": "paper PMC8348983", "about": "(International Journal of Molecular Sciences, 2021)", "biological_target": "POP (prolyloligopeptidase) (Homo sapiens, UniProt P48147)", "sequence (P48147 whole entry)": "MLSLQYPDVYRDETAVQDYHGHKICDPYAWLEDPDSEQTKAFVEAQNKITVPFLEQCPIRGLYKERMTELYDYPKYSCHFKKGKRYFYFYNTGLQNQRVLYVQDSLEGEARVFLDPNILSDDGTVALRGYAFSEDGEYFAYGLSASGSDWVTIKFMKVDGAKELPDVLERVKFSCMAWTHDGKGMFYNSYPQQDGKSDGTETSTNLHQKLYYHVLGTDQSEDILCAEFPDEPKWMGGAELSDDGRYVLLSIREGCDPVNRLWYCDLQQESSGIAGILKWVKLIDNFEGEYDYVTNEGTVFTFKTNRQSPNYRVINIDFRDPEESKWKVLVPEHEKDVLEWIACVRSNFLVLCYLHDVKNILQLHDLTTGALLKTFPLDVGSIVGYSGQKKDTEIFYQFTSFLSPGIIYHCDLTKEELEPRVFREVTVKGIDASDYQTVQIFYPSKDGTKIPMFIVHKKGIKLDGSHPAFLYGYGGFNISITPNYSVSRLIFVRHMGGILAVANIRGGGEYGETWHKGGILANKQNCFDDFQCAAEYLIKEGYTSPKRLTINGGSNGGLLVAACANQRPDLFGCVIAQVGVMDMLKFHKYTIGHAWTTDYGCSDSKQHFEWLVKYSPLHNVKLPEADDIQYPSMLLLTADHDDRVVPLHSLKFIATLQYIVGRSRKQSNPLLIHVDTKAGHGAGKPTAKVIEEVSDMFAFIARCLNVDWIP", "experiment": "POP inhibition assay", "assay_type": "biochemical", "details": "bounds marked f: highest tested concentration due to low solubility in buffer; read-out: IC50, POP ± SEM", "experimental": "The previously applied procedure was used. Detailed description of the assay can be found in Supplementary Materials.\nPOP (EC 3.4.21.26) was dissolved in phosphate-buffered saline (PBS; 0.01 M Na/K phosphate buffer, […]\nThe assay was performed in standard polystyrene 96-well microplates with a flat and clear bottom.\nStock solutions of tested compounds were prepared in DMSO (10 mM). Dilutions (10−3 to 10−7 M) were prepared from the stock solution with deionized H2O; the control was performed with the same DMSO concentration. POP substrate, (Z)-Gly-Pro-p-nitroanilide, was dissolved in 50% 1,4-dioxane (5 mM). For each reaction, PBS (170 μL), tested compound (5 μL), and POP (5 μL) were incubated for 5 min at 37 °C. Then, substrate (20 μL) was added, and the microplate was incubated for 30 min at 37 °C. The formation of p-nitroanilide, directly proportional to the POP activity, was measured […]\nSynergy 2, BioTek Instruments, Winooski, VT). The inhibition potency of tested compounds was calculated by nonlinear regression analysis and was expressed as an IC50 value (concentration of inhibitor which causes 50% POP inhibition). […]"}
{"compound": "C=CCOc1ccc(CCN(CC=C)Cc2ccc(OC)c(OCc3ccccc3)c2)cc1", "note": "[Compound 6, N-allyl-N-(3-benzyloxy-4-methoxybenzyl)-2-(4-allyloxyphenyl)ethan-1-amine]", "values": [{"measurement": "IC50", "result": "> 79", "unit": "µM"}]}
